The assay concerns 996289-038-R-J1-PDC spheroid viability. Nature of the assay: Anticancer human tumor 996289-038-R-J1-PDC patient-derived colon adenocarcinoma cell line growth inhibition [PI3K]. Particulars: spheroids with HUVEC and MSC; for viability, T/C: stronger effect = lower value. From the text:
Combinatorial screen of targeted agents with the PI3K inhibitors inavolisib, alpelisib, duvelisib, and copanlisib in multi-cell type tumor spheroids
A high-throughput screen of multi-cell type tumor spheroids was designed to identify active combinations of targeted small molecules and PI3K pathway inhibitors. Complex spheroids include a stromal component modeled by human endothelial cells (HUVEC) and fibroblasts modeled by human mesenchymal stem cells (MSCs). The concentration ranges selected for each drug and investigational agent were based upon clinically achievable concentrations if the clinical Cmax of the agent was known.
Compounds. The drugs and investigational agents: inavolisib (NSC800729), alpelisib (NSC765974), duvelisib (NSC772469), copanlisib (NSC816437), ipatasertib (NSC767898), afuresertib (NSC778305), talazoparib (NSC767125), sapanisertib (NSC764658), selumetinib (NSC741078), tovorafenib (DAY101, NSC766906), vemurafenib (NSC761431), ravoxertinib (NSC781343), sotorasib (NSC818433), MRTX1133 (NSC 836407), abemaciclib (NSC 768073), palbociclib (NSC758247), venetoclax (NSC 766270), SY5609 (NSC837396), enzalutamide (NSC755605), and darolutamide (NSC825331), were obtained from the National Cancer Institute (NCI) Developmental Therapeutics Program Chemical Repository. The FDA-approved anticancer drug set is available from the NCI Developmental Therapeutics Program. […] The stock solutions were prepared in dimethyl sulfoxide (DMSO, Sigma-Aldrich, St. Louis, MO, cat. D2650) at 800-fold the tested concentration and stored at -70 degrees C prior to their use. All drugs and investigational agents were tested over a range starting from a high concentration at or near the clinical Cmax and decreasing in half-log increments. If the clinical Cmax for an agent had not been determined, the highest concentration tested was 10 microM.
Cell Culture. All cells were maintained in an incubator at 37 degrees C and 5% CO2 with 95% humidity. The PDC lines were cultured according to standard operating procedures established by the NCI PDMR (https://pdmr.cancer.gov/sops/default.htm). All PDCs were thawed and cultured in Matrigel-coated flasks prepared with a working solution of 1X Ham's F-12 nutrient mix, without supplementation (Invitrogen, Waltham, MA, cat. 11765054), 100 U/mL penicillin-streptomycin (Invitrogen, cat. 15140122), and 2.5% Matrigel (Corning Inc., Corning, NY, cat. 354248) for the first three passages. The 354836-022-R-J1-PDC, 475296-252-R-J1-PDC, and 997726-040-R-J2-PDC lines were cultured in 6A media, which includes advanced DMEM/F-12 (Thermo Fisher Scientific, cat. 12634028), 10 mM HEPES (Thermo Fisher Scientific, cat. 15630080), 1X GlutaMAX supplement (Thermo Fisher Scientific, cat. 35050061), 0.1 mg/mL primocin (InvivoGen, San Diego, CA, cat. ant-pm-2), 10% defined fetal bovine serum, heat inactivated (HyClone Laboratories Inc., Logan, UT, cat. SH30070.03HI), 50% L-WRN conditioned media (ATCC, cat. CRL-3276), 1.25 mM N-Acetyl-L-cysteine (Sigma-Aldrich, cat. A9165), 10 mM nicotinamide (Sigma-Aldrich, cat. N0636), 1X B-27 supplement (Thermo Fisher Scientific, cat. 17504044), 1X N-2 supplement (Thermo Fisher Scientific, cat. 17502048), and 10 microM Y-27632 dihydrochloride (Tocris Bioscience, Bristol, United Kingdom, cat. 1254). The 624824-186-R-J2-PDC line was cultured in 6C/Colon 1B media, which includes all 6A media components plus 50 ng/mL human EGF recombinant protein (Thermo Fisher Scientific, cat. PHG0311). […]

[1] abbreviates: compound alone, run of 06/13/2023.

Our source for the viability, T/C and IC50 values is PubChem BioAssay AID1963965 (Molecular Pharmacology Branch, DTP, NCI, 2024).

What is called viability, T/C is the ratio of treated to control. The term IC50 denotes the concentration that gives 50% inhibition.

SMILES strings stand for the structures. “And” between values parts separate entries of the source, which are not always exact repeats. Identical values can stand only once. Where only a bound is given, the exact number is not on record here.
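Also: spheroids exposed to compounds for seven days before viability read.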
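For viability, T/C in this document: luminescence used as a proxy for viable cell amount; percent viability relative to DMSO vehicle control as 100%.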

Take `CC(=O)c1c(C)c2cnc(Nc3ccc(N4CCNCC4)cn3)nc2n(C2CCCC2)c1=O`: the viability, T/C (compound 0.000316 µM) is 104% [middle of 4 runs]; the viability, T/C (compound 0.001 µM) was 96.8% [middle of 4 runs]; the viability, T/C (compound 0.01 µM) was 95.5% [middle of 4 runs]; the viability, T/C (compound 0.0316 µM) is 96% and 101% (2×) and 91.4%; the viability, T/C (compound 0.1 µM) was 87.6% [middle of 4 runs]. Further, the IC50 (curve of compound) is more than 0.1 µM.
In the case of `CC(C)NCC(C(=O)N1CCN(c2ncnc3c2C(C)CC3O)CC1)c1ccc(Cl)cc1` (stereo not given), the viability, T/C reads like this: (compound 0.0316 µM) 106% [middle of 4 runs]; (compound 0.1 µM) 86.8% [middle of 4 runs]; (compound 0.316 µM) 99.8% [middle of 4 runs]; (compound 1 µM) 94.2% [middle of 4 runs]; (compound 3.16 µM) 88% [middle of 4 runs]; (compound 10 µM) 78.7% [middle of 4 runs]. For the setting “curve of compound”, the half-maximal inhibitory concentration (IC50) was more than 10 µM.
For the molecule `CC(C)n1nc(-c2ccc3oc(N)nc3c2)c2c(N)ncnc21`, the viability, T/C was 105% [middle of 4 runs] (compound 0.000316 µM); 85.2% [middle of 4 runs] (compound 0.001 µM); 89.4% [middle of 4 runs] (compound 0.00316 µM); 88.6% [middle of 4 runs] (compound 0.01 µM); 67% [middle of 4 runs] (compound 0.0316 µM); 35.7% [middle of 4 runs] (compound 0.1 µM). The concentration for half-maximal inhibition (IC50) (curve of compound) was 58.6 nM [middle of 4 runs].
Consider `CC(Cn1ccc(-c2ccc(C#N)c(Cl)c2)n1)NC(=O)c1cc(C(C)O)[nH]n1` (stereo not given), for which the viability, T/C runs as follows: (compound 0.0316 µM) 98.8% [middle of 4 runs]; (compound 0.1 µM) 104% (2×) and 86.4% and 92.5%; (compound 0.316 µM) 86.8% and 108% (2×) and 113%; (compound 1 µM) 108% [middle of 4 runs]; (compound 3.16 µM) 97.8% [middle of 4 runs]; (compound 10 µM) 101% [middle of 4 runs]. In addition, the IC50 (curve of compound) was more than 10 µM.
Take `CC(Nc1ccc2c(c1)OCCn1cc(N3C(=O)OCC3C(F)F)nc1-2)C(N)=O` (stereo not given): the viability, T/C is, setting by setting: (compound 0.00316 µM) 105% [middle of 8 runs]; (compound 0.0316 µM) 95.4% [middle of 8 runs]; (compound 0.1 µM) 90.3% [middle of 8 runs]; (compound 0.316 µM) 80% [middle of 8 runs]; (compound 1 µM) 67.5% [middle of 8 runs]. Also, the IC50 (compound alone, run of 06/12/2023) is more than 1 µM.
Take `CC(Nc1ncnc2nc[nH]c12)c1cc2cccc(Cl)c2c(=O)n1-c1ccccc1` (stereo not given): the viability, T/C was 99.9% [middle of 8 runs] (compound 0.0316 µM); 98% [middle of 8 runs] (compound 0.1 µM); 97.6% [middle of 8 runs] (compound 0.316 µM); 89.2% [middle of 8 runs] (compound 3.16 µM); 95.7% [middle of 8 runs] (compound 10 µM). The IC50 under setting [1] is more than 10 µM.
For the molecule `CCCS(=O)(=O)Nc1ccc(F)c(C(=O)c2c[nH]c3ncc(-c4ccc(Cl)cc4)cc23)c1F`, the viability, T/C runs as follows: (compound 0.0316 µM) 106% [middle of 4 runs]; (compound 0.1 µM) 93.7% [middle of 4 runs]; (compound 0.316 µM) 100% [middle of 4 runs]; (compound 1 µM) 94.5% [middle of 4 runs]; (compound 3.16 µM) 96.8% [middle of 4 runs]; (compound 10 µM) 23.3% [middle of 4 runs]. Where the note is “curve of compound”, the IC50 was 6.53 µM [middle of 4 runs].
Take `CCN1CCN(Cc2ccc(Nc3ncc(F)c(-c4cc(F)c5nc(C)n(C(C)C)c5c4)n3)nc2)CC1`: the viability, T/C by setting is: (compound 0.00316 µM) 99.6% [middle of 4 runs]; (compound 0.01 µM) 91.2% [middle of 4 runs]; (compound 0.0316 µM) 94% [middle of 4 runs]; (compound 0.1 µM) 85.2% [middle of 4 runs]; (compound 0.316 µM) 85.7% [middle of 4 runs]; (compound 1 µM) 85.3% [middle of 4 runs]. Besides, the IC50 (curve of compound) was more than 1 µM.
As for `CNC(=O)c1ccc(N2C(=S)N(c3ccc(C#N)c(C(F)(F)F)c3)C(=O)C2(C)C)cc1F`, the viability, T/C is 111% and 106% (2×) and 100% (compound 0.0316 µM); 97% [middle of 4 runs] (compound 0.1 µM); 111% [middle of 4 runs] (compound 0.316 µM); 113% [middle of 4 runs] (compound 1 µM). The IC50 (curve of compound) is more than 10 µM.
Regarding `COc1c(OCCCN2CCOCC2)ccc2c3n(c(=NC(=O)c4cnc(N)nc4)nc12)CCN3`, the viability, T/C was 96.3% [middle of 8 runs] (compound 0.00316 µM); 96.2% [middle of 8 runs] (compound 0.01 µM); 76.4% [middle of 8 runs] (compound 0.0316 µM); 61.7% [middle of 8 runs] (compound 0.1 µM); 36.1% [middle of 8 runs] (compound 0.316 µM); 21.6% [middle of 8 runs] (compound 1 µM). In addition, the IC50 under setting [1] was 162 nM [middle of 8 runs].
In the case of `C[C@@H](NC(=O)c1ncnc(N)c1Cl)c1ncc(C(=O)Nc2cc(C(F)(F)F)c(Cl)cn2)s1`, the viability, T/C reads like this: (compound 0.0316 µM) 110% [middle of 4 runs]; (compound 0.1 µM) 103% [middle of 4 runs]; (compound 0.316 µM) 110% (2×) and 119% and 115%; (compound 1 µM) 114% [middle of 4 runs]; (compound 10 µM) 131% [middle of 4 runs]. Moreover, the IC50 (curve of compound) was more than 10 µM.
Take `Cc1nc(NC(=O)N2CCCC2C(N)=O)sc1-c1ccnc(C(C)(C)C(F)(F)F)c1` (stereo not given): the viability, T/C by setting is: (compound 0.0316 µM) 99.9% [middle of 8 runs]; (compound 0.1 µM) 94.7% [middle of 8 runs]; (compound 0.316 µM) 85.8% [middle of 8 runs]; (compound 1 µM) 73.9% [middle of 8 runs]; (compound 3.16 µM) 61.8% [middle of 8 runs]; (compound 10 µM) 52.6% [middle of 8 runs].
In the case of `Cn1cnc2c(F)c(Nc3ccc(Br)cc3Cl)c(C(=O)NOCCO)cc21`, the viability, T/C reads like this: (compound 0.00949 µM) 89.3% [middle of 4 runs]; (compound 0.03 µM) 74.7% [middle of 4 runs]; (compound 0.0949 µM) 64% [middle of 4 runs]; (compound 0.3 µM) 44.4% [middle of 4 runs]; (compound 0.949 µM) 35.1% [middle of 4 runs]; (compound 3 µM) 24.5% [middle of 4 runs]. For the same molecule, the IC50 (curve of compound) is 229 nM [middle of 4 runs].
In the case of `Cn1ncnc1[C@H]1c2n[nH]c(=O)c3cc(F)cc(c23)N[C@@H]1c1ccc(F)cc1`, the viability, T/C is 105% [middle of 4 runs] (compound 0.001 µM); 103% [middle of 4 runs] (compound 0.00316 µM); 100% [middle of 4 runs] (compound 0.01 µM); 109% [middle of 4 runs] (compound 0.0316 µM); 98.9% [middle of 4 runs] (compound 0.1 µM). Further, the IC50 (curve of compound) was more than 0.1 µM.
